Source: US7803764B2, “Amphipathic glycopeptides” (The Arizona Board of Regents on Behalf of the University of …, priority 2004, dated 2010)
Non-standard residues stand in square brackets, D forms with d. No end group written: not given here. *: point of attachment. βGlc = OC[C@H]1O[C@@H](*)[C@H](O)[C@@H](O)[C@@H]1O; Aib = CC(C)(N)C(=O)O; βAla = NCCC(=O)O

Key:
δ opioid receptor = δ opioid receptor (Homo sapiens, UniProt P41143); assay: opioid receptor binding, δ receptor
μ opioid receptor = μ opioid receptor (Homo sapiens, UniProt P35372); assay: opioid receptor binding, μ receptor
μ opioid receptor, sequence (P35372 whole entry): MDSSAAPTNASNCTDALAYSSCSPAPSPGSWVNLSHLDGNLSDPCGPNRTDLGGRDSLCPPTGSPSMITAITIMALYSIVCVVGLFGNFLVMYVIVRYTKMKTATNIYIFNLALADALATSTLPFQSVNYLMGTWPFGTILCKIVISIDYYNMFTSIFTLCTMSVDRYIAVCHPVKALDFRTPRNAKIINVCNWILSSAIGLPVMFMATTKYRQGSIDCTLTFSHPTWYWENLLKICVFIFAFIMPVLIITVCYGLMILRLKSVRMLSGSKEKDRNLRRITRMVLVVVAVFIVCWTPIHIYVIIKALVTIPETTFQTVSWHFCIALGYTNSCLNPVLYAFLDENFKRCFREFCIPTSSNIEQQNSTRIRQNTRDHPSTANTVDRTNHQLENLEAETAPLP

[1] = in vivo antinociception after i.c.v. administration; design: species or system mice; settings: i.c.v., mice; for A50 i.c.v.: antinociception
[2] = helicity by circular dichroism; type: physicochemical; settings: for % α-helicity: CD, SDS micelles (30 mM), pH = 7.0, 18° C.
Method: Circular Dichroism. All of the circular dichroism experiments were carried out on Aviv Associates model 60DS using an Endcal Model RTE4DD water circulator as a temperature-control vehicle. The instrument was calibrated by using d-10-camphorsulphonic acid. The spectra were recorded between 200 and 250 nm by using the continuous mode with a 1.5 nm bandwidth, a three second response and a scan step of 0.5 nm in a cell with a path length of 0.1 cm. Three or five scans were accumulated and averaged for each spectrum. Glycopeptide stock solutions were prepared by weighing the required amount, using Cahn/Ventron Instruments Model 21 automatic analytical electrobalance, to make 1 mL of a 0.5-1.0 mM solution and the pH was adjusted to the desired value. Samples were prepared by diluting the stock solution to 70-80 μM. All observed spectra were baseline-subtracted and smoothed by adjacent average of 5 points using Microcal Origin Ver. 5.0 software (Microcal Software Inc, USA). The molar ellipticities were determined using the formula [θ]=[θ]obs·(MRW)/10·l·C, where [θ]obs observed ellipticity in millidegrees, MRW is the mean residue weight, l is the cell path length in centimeters and C is the glycopeptide concentration in mg/mL. The percent α-helicity was determined by using the formula % helix=[θ]n→π*/−40,000 (1−2.5/n)·100, where n represents the number of amide bonds (including the C-terminal amide) in the glycopeptide and [θ]n→π** is molar ellipticity of n→π* transition band at 222 nm.^55
Conformational Analysis by CD. Circular dichroism (CD) is a powerful and simple tool for identifying secondary structure in both peptides and proteins.^64 All the peptides were subjected to CD analysis in H2O, TFE-H2O mixtures, SDS micelles and phospholipid bicelles. In H2O, a negative band near 200 nm is observed that arises from the π→π* electronic transition and is typical of random coil peptides. […] This behavior is explained as nascent helices.^65 In these nascent helices, helix CD signals could be induced by the addition of TFE.^66 All the glycopeptides gave an increased helix CD signal in TFE. The percentage of helicity increases as TFE concentration increases, but reached a maximum at 30% TFE. The increase in helicity in TFE can be attributed to decreased competition by H2O for hydrogen bonding to the backbone amides. […] In the presence of SDS micelles and anionic bicelles, the band at 200 nm underwent a red shift (higher value) and an additional shoulder appears around 222 nm as a result of the n→π* transition. […] The negative maxima at 222 nm (n→π* transition band) is used to calculate the helical content of polypeptides and proteins. The accepted value for a peptide that is 100% helical is approximately −35,000. It was observed that changes in amplitude of the bands up to 30% depend on length of helix.^67 The amplitude increases as α-helical chain length increases. Therefore, one has to consider the importance of chain-length dependence of the α-helix CD in the quantitative treatment of helix content in proteins and polypeptides. The percentage of helicity is independent of SDS concentration and pH (data not shown). In the presence of zwitterionic bicelles all of the glycopeptides yielded CD spectra similar to that observed in H2O, but anionic bicelles forced them to become more helical. The intensities of the [θ]π→π* band and the [θ]n→π* band are expected to be almost equal for a perfect α-helical peptide. […] A modest blue shift and reduced intensity for the [θ]n→π* transition bands are observed for all the glycopeptides in TFE. […] The glycopeptides 9 (Pro/Glc) and 12 (Pro/Lactose), which differ only by the sugar moiety attached, adopt perfect helices in the presence of SDS micelles and in anionic bicelles. The disaccharide increased the percentage of helicity in all the solvents, relative to the monosaccharide. […] It is remarkable to note that a single amino acid mutation at position 6 produced profound changes in the CD spectra. […]

[3] = helicity by NMR αCH chemical shift index; type: physicochemical
Method: NMR Spectroscopy. All NMR spectra were recorded on a Bruker DRX600 600 MHz spectrometer. Glycopeptide concentration for the NMR experiments varied from 2-3 mM. The glycopeptides were prepared in TFE-water solution by dissolving the peptide in 0.6 ml solution of a premixed 30% TFE-water mixture. The micelle samples were prepared by dissolving the glycopeptide and 100 equivalent of perdeuterated SDS in 0.6 ml of H2O/D2O (9:1 ratio by volume). Bicelles were produced from deuterated phospholipids. The zwitterionic bicelles were made by mixing the short chain phospholipid dihexanoyl-sn-glycero-3-phosphatidylcholine-d22 (DHPC) and the long chain 1,2-dimyristoyl-sn-glycero-3-phosphatidylcholine-d54 (DMPC) in the molar ratio of 2:1 in H2O. The […] were prepared by substituting 10 mol % of 1,2-dimyristoyl-sn-glycero-3-phospho-1-glycerol-d54 (DMPG) for DMPC. The glycopeptide to bicelle ratio was 1:25. After the glycopeptide was added to the bicelle solution, the system was submitted to a series o f three freeze/thaw/slight vortex shaking cycles. The pH of the each sample was adjusted to 4.5 by using DCl or NaOD as necessary. TSP (3-(trimethylsilyl)-d4-propionic acid) was added as an internal standard. The experiments in F3CCD2OD/H2O mixtures were at 293 K and for experiments in micelles/bicelles were at 298 or 311 K. Two-dimensional double quantum filtered correlation (DQF-COSY), rotating-frame Overhauser enhancement^56 (ROESY), Nuclear Overhauser enhancement^57 (NOESY), and total correlation spectra^58 (TOCSY) were acquired using standard pulse sequences and processed using XWINNMR (Bruker Inc) and FELIX2000 (Accelrys Inc, San Diego, Calif.), Mixing times for TOCSY spectra were either 80 or 100 ms. Mixing times for ROESY spectra were 150 or 250 ms, and for NOESY spectra were 200 or 300 ms. All experiments were 750 increments in t1, 16/32/64 scans each, 1.5 s relaxation delay, size 2 or 4K, and the spectral processing was with shifted sine bell window multiplications in both dimensions.
αCH Chemical Shift Index. […] At this point there is no accepted random coil αCH values for glycosylated serine, CSI values for this position are uncertain. The conformational shift values for all solvents were obtained using the random coil values described by Wright and co-workers.^72 Although, these reference shifts were obtained at pH=5.0 at 4.2° C., they appear to be very insensitive to the conditions, as very small deviations (±0.04) were observed when random coil values are obtained at pH=7.0 at 35° C. by Wuthrich and co-workers.^68 The quantification of secondary structure based on αCH chemical shifts is neglected in the literature because various contributions cannot be strictly accounted for, such as electrostatic effects, ring current shifts, and other magnetic anisotropies. However, it is possible to make qualitative comparison of helical content between closely related (glyco)peptides. Since the 3rd generation glycopeptides differ by only one amino acid at position 6, the helical content was obtained based on the αCH chemical shift values (Table 3). The method described by Gierasch and co-workers^69a was used. First, the average conformational shift was calculated for each glycopeptide by adding all upfield shifts in the helical regions and dividing by the total number of peptide bonds. Then, to obtain the overall helical content for each glycopeptide, the average conformational shift was divided by 0.35 ppm, which was assigned for 100% helicity. Since, there are no random coil values available for β-Alanine and glycosylated serine residues, they were not included in the calculation. The helicogenic Aib residue lacks an α-proton, and there was no correction included in the calculation for the helicity provided by Aib residue. The helical content obtained by this method correlated with the helical content obtained by CD. […]

[4] = blood-brain barrier uptake / penetration; settings: mice
mu opioid receptor = assay: opioid receptor assay, format not described (Table 1, µ IC50)
mu opioid receptor, sequence (P35372 whole entry): as above

delta opioid receptor = assay: opioid receptor assay, format not described (Table 1, δ IC50)
[5] = solvent Bicelle A (anionic bicelles)

δ opioid receptor, sequence (P41143 whole entry): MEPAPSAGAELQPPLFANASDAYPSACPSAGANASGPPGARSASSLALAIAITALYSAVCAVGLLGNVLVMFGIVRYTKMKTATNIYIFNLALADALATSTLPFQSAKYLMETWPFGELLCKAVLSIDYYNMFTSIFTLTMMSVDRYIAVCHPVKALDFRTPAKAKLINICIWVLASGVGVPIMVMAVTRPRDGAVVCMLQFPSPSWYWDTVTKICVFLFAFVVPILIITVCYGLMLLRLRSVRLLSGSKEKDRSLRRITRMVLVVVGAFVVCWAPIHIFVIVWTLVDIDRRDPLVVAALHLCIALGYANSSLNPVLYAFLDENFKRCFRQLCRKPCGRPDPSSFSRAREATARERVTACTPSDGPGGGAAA

Question: With `CC(C)C[C@H](NC(=O)CNC(=O)[C@H](CC(C)C)NC(=O)[C@H](Cc1ccccc1)NC(=O)CNC(=O)[C@H](NC(=O)[C@@H](N)Cc1ccc(O)cc1)[C@H](C)O)C(=O)N[C@@H](CC(C)C)C(=O)N[C@@H](CCCCN)C(=O)N[C@@H](CO[C@@H]1O[C@H](CO)[C@@H](O)[C@H](O)[C@H]1O)C(=O)N[C@@H](Cc1ccccc1)C(=O)N[C@@H](C)C(=O)N[C@@H](CCC(=O)O)C(=O)N[C@@H](CO[C@@H]1O[C@H](CO)[C@@H](O)[C@H](O)[C@H]1O)C(=O)N[C@@H](Cc1c[nH]c2ccccc12)C(=O)N[C@@H](CO[C@@H]1O[C@H](CO)[C@@H](O)[C@H](O)[C@H]1O)C(=O)N[C@@H](CC(N)=O)C(=O)N[C@@H](Cc1ccccc1)C(N)=O` (relative stereo) [Glycopeptide 6, YtGFLGLLKS*FAES*WS*NF] as the molecule, how does the IC50 (δ opioid receptor) read?
Answer: 11.9 nM

Question: And the IC50 (μ opioid receptor)?
Answer: 154 nM

Question: And the A50 i.c.v. [1]?
Answer: 0.028 nmol

Question: And the “% α-helicity” value [2]?
Answer: 37%

Question: What does the source list for `CC(C)C[C@H](NC(=O)[C@H](CO[C@@H]1O[C@H](CO)[C@@H](O)[C@H](O)[C@H]1O)NC(=O)[C@H](CCCCN)NC(=O)[C@H](CC(C)C)NC(=O)[C@H](C)NC(=O)[C@H](CCCCN)NC(=O)[C@H](CCC(=O)O)NC(=O)C(C)(C)NC(=O)[C@H](CC(C)C)NC(=O)[C@H](CC(N)=O)NC(=O)CCNC(=O)[C@H](CC(C)C)NC(=O)[C@H](Cc1ccccc1)NC(=O)CNC(=O)[C@H](NC(=O)[C@@H](N)Cc1ccc(O)cc1)[C@H](C)O)C(N)=O` (relative stereo) [Glycopeptide 10, YtGFLβANLBEKALKS*L]?
Answer: IC50 (δ opioid receptor): 109 nM; IC50 (μ opioid receptor): 153 nM; A50 i.c.v. [1]: 0.030 nmol; % α-helicity by CD [2, 5]: 27%; % α-helicity by CD ([2]; solvent H2O): >1%; % α-helicity by CD ([2]; solvent SDS micelles): 29%; % α-helicity by CD ([2]; solvent TFE): 22%; % α-helicity by NMR ([3]; solvent H2O): 17%; % α-helicity by NMR ([3]; solvent SDS micelles): 55%; % α-helicity by NMR ([3]; solvent TFE): 32%; BBB uptake [4]: 0.183 microliters per min per gram of cortex

Question: For YtGFLPNLBEKALKS**L [Glycopeptide 12], which “% α-helicity by CD” value [2, 5] is on record?
Answer: 33%

Question: What about the “% α-helicity by CD” value ([2]; solvent H2O) of the same molecule?
Answer: >1%

Question: And the “% α-helicity by CD” value ([2]; solvent SDS micelles)?
Answer: 33%

Question: What about the “% α-helicity by CD” value ([2]; solvent TFE) of the same molecule?
Answer: 23%

Question: And the “% α-helicity by NMR” value ([3]; solvent H2O)?
Answer: 22%

Question: What about the “% α-helicity by NMR” value ([3]; solvent SDS micelles) of the same molecule?
Answer: 29%

Question: And the “% α-helicity by NMR” value ([3]; solvent TFE)?
Answer: 34%

Question: Which “in vivo potency and duration of action (in words)” value ([1]; within 2nd generation series) does the source give for YtGFLGLLKS*FWES*WS*NF [Glycopeptide 8] here?
Answer: lowest potency in vivo, but longest duration of action

Question: And the “% α-helicity” value [2]?
Answer: 39%

Question: Which IC50 (δ opioid receptor) does the source give for `CC(C)C[C@H](NC(=O)[C@H](Cc1ccccc1)NC(=O)CNC(=O)[C@H](NC(=O)[C@@H](N)Cc1ccc(O)cc1)[C@H](C)O)C(=O)NCC(=O)N[C@@H](CCCCN)C(=O)N[C@@H](CO[C@@H]1O[C@H](CO)[C@@H](O)[C@H](O)[C@H]1O)C(=O)N[C@@H](Cc1ccccc1)C(=O)N[C@@H](C)C(=O)N[C@@H](CCC(=O)O)C(=O)N[C@@H](CC(C)C)C(=O)N[C@@H](Cc1c[nH]c2ccccc12)C(=O)N[C@@H](CO[C@@H]1O[C@H](CO)[C@@H](O)[C@H](O)[C@H]1O)C(=O)N[C@@H](CC(N)=O)C(=O)N[C@@H](Cc1ccccc1)C(=O)N[C@@H](CC(C)C)C(=O)N[C@@H](CO[C@@H]1O[C@H](CO)[C@@H](O)[C@H](O)[C@H]1O)C(N)=O` (relative stereo) [Glycopeptide 7, YtGFLGKS*FAELWS*NFLS*] here?
Answer: 25.6 nM

Question: And the IC50 (μ opioid receptor)?
Answer: 38.2 nM

Question: What about the A50 i.c.v. [1] of the same molecule?
Answer: 0.096 nmol

Question: What about the “% α-helicity” value [2] of the same molecule?
Answer: 15%

Question: For YtGFLGALKS*FAES*LS*NA [Glycopeptide 5], which “% α-helicity” value [2] is on record?
Answer: 58%

Question: For Y[dT]GFLGGNL[Aib]EKALKS(βGlc)L-NH2 [Glycopeptide 11 (YtGFLGGNLBEKALKS*L)], which IC50 (mu opioid receptor) is on record?
Answer: 53 nM

Question: What about the IC50 (delta opioid receptor) of the same molecule?
Answer: 32.5 nM

Question: Which results are given for Y[dT]GFLGKS(βGlc)FAELWS(βGlc)NFLS(βGlc)-NH2 [Glycopeptide 7 (YtGFLGKS*FAELWS*NFLS*)]?
Answer: IC50 (mu opioid receptor): 38.2 nM; IC50 (delta opioid receptor): 25.6 nM

Question: For Y[dT]GFLGLLKS(βGlc)FAES(βGlc)WS(βGlc)NF-NH2 [Glycopeptide 6 (YtGFLGLLKS*FAES*WS*NF)], which IC50 (mu opioid receptor) is on record?
Answer: 154 nM

Question: What about the IC50 (delta opioid receptor) of the same molecule?
Answer: 11.9 nM

Question: For Y[dT]GFLGELAS(βGlc)KWFNALES(βGlc)-NH2 [Glycopeptide 2 (YtGFLGELAS*KWFNALES*)], which IC50 (mu opioid receptor) is on record?
Answer: 144 nM

Question: And the IC50 (delta opioid receptor)?
Answer: 9.5 nM

Question: With Y[dT]GFLPNL[Aib]EKALKS(βGlc)L-NH2 [Glycopeptide 9 (YtGFLPNLBEKALKS*L)] as the molecule, how does the IC50 (mu opioid receptor) read?
Answer: 90.8 nM

Question: What about the IC50 (delta opioid receptor) of the same molecule?
Answer: 6.15 nM

Question: With Y[dT]GFL[βAla]NL[Aib]EKALKS(βGlc)L-NH2 [Glycopeptide 10 (YtGFLβANLBEKALKS*L)] as the molecule, how does the IC50 (mu opioid receptor) read?
Answer: 153 nM

Question: And the IC50 (delta opioid receptor)?
Answer: 109 nM
